Key:
[1] = system: A375 melanoma cells; test: Allogeneic PBMC-mediated cytotoxicity of A375 melanoma cells, caspase 3/7 (Example 4); type: cell-based, human; conditions: with SEB-stimulated PBMCs, FIG. 9A/9B
Procedure: A375 cells incubated alone, in the absence of SEB-stimulated PMBCs, with either compound had no significant effect on cellular apoptosis.

[2] = system: SEB-restimulated PBMCs; test: IFNγ production in SEB-restimulated PBMCs (Example 1); type: cell-based, human; conditions: FIG. 5 (Inhibitor 3 at 10 μM)
Text: The effect of USP9X inhibition on PBMCs that have been re-stimulated with SEB was also investigated. […] This is consistent with the notion that the SEB-restimulated T cells were in a state of exhaustion or rendered tolerant to SEB.

[3] = system: mixed lymphocyte reaction; test: mixed lymphocyte reaction (MLR) assay (Example 2); type: cell-based; conditions: FIG. 7
Procedure: (§1) Given the reported role of ITCH and Cbl-b in T cell tolerance and as a negative regulator of T-cell receptor (TCR)/[…] 28 (CD28) signaling, the effects of USP9X inhibition were evaluated in a CD3/CD28 activation assay and in a mixed lymphocyte reaction (MLR) assay.

[4] = system: Human total T cells (CD3+); test: Human T cell activation with CD3/CD28 activator, IFNγ ELISA (Example 6); type: cell-based; conditions: 4 days, two donors, FIGS. 11-12
Procedure: Human total T cells (CD3+) were isolated using EasySep™ immunomagnetic beads (Stemcell Technologies) from healthy human PBMCs (Hemacare). Cells were stained with Cell Trace Violet proliferation dye (Invitrogen), and treated with agent or DMSO. Cells were also stimulated with a CD3/CD28 activator (Stemcell Technologies). After 4 days of incubation, cells and supernatant were collected; cells were washed with staining buffer (PBS with 2% FBS) twice and centrifuged (350 g for 5 min). Cells were stained with LIVE/DEAD stain (Invitrogen), FITC-CD4 (BD Pharmingen) and CD8 (BD Pharmingen) in 100 μL volume for 30 mins at 4° C. Cells were washed twice as described above, resuspended in 100 μL staining buffer and analyzed using a BD Canto II (BD Biosciences). Data was analyzed using FlowJo V10 (FlowJo LLC). Secreted IFNγ was measured by ELISA (Dakewe Biotech Co., Ltd). All data were analyzed by Graphpad Prism 6.0 (GraphPad Software).

[5] = system: SEB-exhausted human PBMCs; test: cells; type: cell-based
[6] = system: female BALB/c mice; test: SEB-induced peripheral tolerance in mice, spleen and splenocyte readouts (Example 7); type: in vivo
Procedure: Peripheral tolerance/inactivation was induced in female BALB/c mice by a single intraperitoneal injection of 30 μg SEB. Mice were treated with a positive control (anti-CTLA4) or various doses of USP9X Inhibitor 3. Spleens and splenocytes were harvested at 24 hr after the last dose. […] No changes in IL-2 and IFNγ levels were detected in the supernatants from SEB-restimulated splenocytes.

[7] = system: CD3/CD28 Activated T Cells; test: anti-CD3/CD28 T cell activation assay (Example 2); type: cell-based; conditions: FIG. 6
Procedure: as §1

[8] = highest dose group, 24 hr after last dose

Row | SMILES | A375 apoptosis (caspase 3/7 activity) [1] | IFNγ production following SEB-restimulation [2] | IFNγ secretion in the MLR assay [3] | EC50 ([3]; Lymphocyte, read-out: EC50 for IFNγ secretion in the MLR assay) [nM] | IFNγ production [4] | IFNγ production compared to DMSO or negative control compound 5 [5] | EC50 ([5]; Homo sapiens, PBMC, 48 h, read-out: EC50 value for IFNγ secretion) [nM] | Spleen protein level of Cbl-b, reduction [6, 8] [%] | Spleen protein level of ITCH, reduction [6, 8] [%] | Spleen protein levels of Cbl-b and ITCH ([6]; lower doses) | IL-2 and IFNγ levels in supernatants from SEB-restimulated splenocytes ([6]; splenocytes harvested 24 hr after last dose) | IFNγ production [7]
1 | CNC[C@H](C(=O)N1CC2=C(C1)CN(S(=O)(=O)c1ccc3c(c1)OCCO3)C2)c1cccc(Cl)c1 [USP9X Inhibitor 3, (2R)-2-(3-chlorophenyl)-1-[5-(2,3-dihydro-1,4-Benzodioxine-6-sulfonyl)-1H,2H,3H,4H,5H,6H-pyrrolo[3,4-c]pyrrol-2-yl]-3-(methylamino)propan-1-one] | enhanced A375 apoptosis in a concentration-dependent manner | restored IFNγ production to varying degrees depending on the donor | promoted IFNγ secretion | 100 to 1000 | increased | significantly increase IFNγ production | 100 to 1000 | 81 | 64 | no notable changes | No changes | the most profound effect
2 | O=S(=O)(c1ccc(-c2ncco2)cc1)N1Cc2cnc(C(O)c3cccc(N4CCNCC4)c3)cc2C1 (stereo not shown) [USP9X Inhibitor 4, [2-[4-(1,3-oxazol-2-yl)benzenesulfonyl]-1H,2H,3H-pyrrolo[3,4-c]pyridin-6-yl][3-(piperazin-1-yl)phenyl] methanol] | – | – | – | – | increased | – | – | – | – | – | – | –

Source: US20210346356A1, “INHIBITING UBIQUITIN SPECIFIC PEPTIDASE 9X” (FORMA THERAPEUTICS, INC., priority 2018, published 2021)
